The record followed here is patent US9187471B2, “Pyrido [4,3-b] indole and pyrido [3,4-b] indole derivatives and methods of use” (Medivation Technologies, Inc., priority 2010, dated 2015).

Test [1] addresses T1, human recombinant histamine H1 receptor (Homo sapiens, UniProt P35367).
T1 construct: expressed in transfected cells; host or cells: CHO-K1
Description: Histamine H1 radioligand binding ([3H]Pyrilamine). Conditions: read-out: Histamine H1 Binding (1 μM), percent inhibition of specific binding; compound at 1 μM; 1.2 nM [3H]Pyrilamine. Here is the method:
To evaluate in radioligand binding assays the activity of compounds of the invention, human recombinant histamine H1 receptor expressed in Chinese hamster ovary (CHO) K1 cells (De Backer, M. et al, Biochem. Biophys. Res. Comm. 197(3):1601, 1993) in a modified Tris-HCl buffer (50 mM Tris-HCl, pH 7.4, 2 mM MgCl2, 100 mM NaCl, 250 mM Sucrose) was used. […] Non-specific binding was estimated in the presence of 1 μM Pyrilamine. Receptor proteins were filtered and washed, the filters were then counted to determine [^3H]Pyrilamine specifically bound. […] Biochemical assay results are presented as the percent inhibition of specific binding in Table 2.

Test [2] concerns the target T2, human recombinant dopamine D2L receptor (Homo sapiens, UniProt P14416).
T2 construct: expressed in transfected cells; host or cells: CHO
Briefly: Dopamine D2L radioligand binding ([3H]Spiperone). Conditions: read-out: Dopamine D2L (1 μM), percent inhibition of specific binding; compound at 1 μM; 0.16 nM [3H]Spiperone. Here is the method:
Non-specific binding was estimated in the presence of 10 μM Haloperidol. Receptor proteins were filtered and washed, the filters were then counted to determine [^3H]Spiperone specifically bound.

For test [3], the target named is T3, human recombinant serotonin (5-Hydroxytryptamine) 5-HT2A receptor (Homo sapiens, UniProt P28223).
T3 construct: expressed in transfected cells; host or cells: CHO-K1
T3 sequence (P28223 whole entry): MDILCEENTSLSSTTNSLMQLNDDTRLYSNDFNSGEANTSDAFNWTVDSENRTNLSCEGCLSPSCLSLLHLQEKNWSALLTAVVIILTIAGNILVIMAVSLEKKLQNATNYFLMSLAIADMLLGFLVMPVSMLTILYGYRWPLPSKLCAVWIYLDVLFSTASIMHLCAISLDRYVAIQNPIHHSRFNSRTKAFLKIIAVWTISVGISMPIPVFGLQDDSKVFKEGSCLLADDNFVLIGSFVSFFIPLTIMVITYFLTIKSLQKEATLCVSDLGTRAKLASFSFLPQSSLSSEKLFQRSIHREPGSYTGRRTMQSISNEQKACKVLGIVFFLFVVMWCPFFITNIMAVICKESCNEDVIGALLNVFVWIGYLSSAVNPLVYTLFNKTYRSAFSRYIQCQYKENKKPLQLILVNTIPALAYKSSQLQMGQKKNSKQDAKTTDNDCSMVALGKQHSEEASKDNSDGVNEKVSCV
Description: Serotonin 5-HT2A radioligand binding ([3H]Ketanserin). Conditions: compound at 0.1 μM; read-out: Inhibition of ligand binding, Serotonin 5-HT2A (percent inhibition of specific binding). The procedure: Compounds of the invention were incubated with 0.5 nM [^3H]Ketanserin for 60 min at 25° C. Non-specific binding was estimated in the presence of 1 μM Mianserin. Receptor proteins were filtered and washed, the filters were then counted to determine [^3H]Ketanserin specifically bound.

The target in test [4] is T4, human recombinant serotonin (5-Hydroxytryptamine) 5-HT2C receptor (Homo sapiens, UniProt P28335).
T4 construct: expressed in transfected cells; host or cells: CHO-K1
T4 sequence (P28335 33-458): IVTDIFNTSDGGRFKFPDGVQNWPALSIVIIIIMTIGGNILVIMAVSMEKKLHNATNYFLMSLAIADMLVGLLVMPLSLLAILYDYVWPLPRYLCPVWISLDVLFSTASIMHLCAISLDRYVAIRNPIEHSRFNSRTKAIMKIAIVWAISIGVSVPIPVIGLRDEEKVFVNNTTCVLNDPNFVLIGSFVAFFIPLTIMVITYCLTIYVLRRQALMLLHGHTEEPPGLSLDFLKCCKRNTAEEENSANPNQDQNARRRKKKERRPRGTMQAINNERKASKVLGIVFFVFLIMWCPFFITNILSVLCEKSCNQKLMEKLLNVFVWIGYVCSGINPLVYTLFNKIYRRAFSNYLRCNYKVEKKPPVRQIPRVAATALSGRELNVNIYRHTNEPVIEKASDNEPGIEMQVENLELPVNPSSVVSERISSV
Briefly: Serotonin 5-HT2C radioligand binding ([3H]Mesulergine). Conditions: compound at 0.1 μM; read-out: Inhibition of ligand binding, Serotonin 5-HT2C (percent inhibition of specific binding). Here is the method:
Compounds of the invention were incubated with 1 nM [^3H]Mesulergine for 60 min at 25° C. Non-specific binding was estimated in the presence of 1 μM Mianserin. Receptor proteins were filtered and washed, the filters were then counted to determine [^3H]Mesulergine specifically bound.

The target in test [5] is T5, human recombinant serotonin (5-Hydroxytryptamine) 5-HT6 receptor (Homo sapiens, UniProt P50406).
T5 construct: expressed in transfected cells; host or cells: HeLa
T5 sequence (P50406 whole entry): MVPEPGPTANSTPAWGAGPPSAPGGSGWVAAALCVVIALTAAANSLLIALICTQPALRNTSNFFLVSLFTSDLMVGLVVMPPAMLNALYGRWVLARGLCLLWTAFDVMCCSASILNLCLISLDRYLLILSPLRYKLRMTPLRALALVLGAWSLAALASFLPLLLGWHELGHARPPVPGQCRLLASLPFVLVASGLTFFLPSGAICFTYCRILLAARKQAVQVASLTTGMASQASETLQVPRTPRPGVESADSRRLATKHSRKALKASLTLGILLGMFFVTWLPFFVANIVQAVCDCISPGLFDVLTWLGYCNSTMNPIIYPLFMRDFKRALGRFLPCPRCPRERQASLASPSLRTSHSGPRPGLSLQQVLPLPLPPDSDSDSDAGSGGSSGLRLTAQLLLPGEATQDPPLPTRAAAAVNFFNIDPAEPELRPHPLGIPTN
Briefly: Serotonin 5-HT6 radioligand binding ([3H]LSD). Conditions: compound at 0.1 μM; read-out: Inhibition of ligand binding, Serotonin 5-HT6 (percent inhibition of specific binding). The source says: Receptor proteins were filtered and washed, the filters were then counted to determine [3H]LSD specifically bound.

Test [6] addresses T6, human recombinant serotonin (5-Hydroxytryptamine) 5-HT7 receptor (Homo sapiens, UniProt P34969).
T6 construct: expressed in transfected cells; host or cells: CHO
Description: Serotonin 5-HT7 radioligand binding ([3H]LSD). Conditions: compound at 0.1 μM; read-out: Inhibition of ligand binding, Serotonin 5-HT7 (percent inhibition of specific binding). The procedure: Lysergic acid diethylamide (LSD) for 120 min. at 25° C. […] Receptor proteins were filtered and washed, the filters were then counted to determine [^3H]LSD specifically bound.

T2 sequence (P14416 whole entry): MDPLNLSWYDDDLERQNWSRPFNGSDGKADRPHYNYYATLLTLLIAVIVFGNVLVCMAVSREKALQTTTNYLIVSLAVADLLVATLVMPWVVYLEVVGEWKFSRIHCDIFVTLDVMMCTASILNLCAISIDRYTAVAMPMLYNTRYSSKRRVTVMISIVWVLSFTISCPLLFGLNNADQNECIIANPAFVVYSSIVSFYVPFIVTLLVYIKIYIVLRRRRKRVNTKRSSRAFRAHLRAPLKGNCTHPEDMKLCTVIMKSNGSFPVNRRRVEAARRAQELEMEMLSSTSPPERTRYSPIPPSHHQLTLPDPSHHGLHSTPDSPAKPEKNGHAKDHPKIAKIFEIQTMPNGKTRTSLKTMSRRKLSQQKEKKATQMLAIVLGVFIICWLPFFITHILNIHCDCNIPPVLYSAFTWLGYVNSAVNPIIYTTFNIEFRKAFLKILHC
T6 sequence (P34969 whole entry): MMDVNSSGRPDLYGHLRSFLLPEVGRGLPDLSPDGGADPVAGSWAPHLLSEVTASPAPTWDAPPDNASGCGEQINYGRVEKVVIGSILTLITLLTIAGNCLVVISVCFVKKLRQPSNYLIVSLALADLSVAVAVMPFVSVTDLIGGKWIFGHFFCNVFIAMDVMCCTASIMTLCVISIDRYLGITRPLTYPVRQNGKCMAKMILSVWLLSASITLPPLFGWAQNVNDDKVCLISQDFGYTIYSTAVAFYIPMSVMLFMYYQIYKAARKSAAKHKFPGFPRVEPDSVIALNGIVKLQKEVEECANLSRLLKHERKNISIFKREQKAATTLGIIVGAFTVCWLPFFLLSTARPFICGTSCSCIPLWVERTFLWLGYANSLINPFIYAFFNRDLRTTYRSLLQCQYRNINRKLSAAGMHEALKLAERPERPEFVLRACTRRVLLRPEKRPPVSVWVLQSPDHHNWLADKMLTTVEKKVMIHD
T1 sequence (P35367 whole entry): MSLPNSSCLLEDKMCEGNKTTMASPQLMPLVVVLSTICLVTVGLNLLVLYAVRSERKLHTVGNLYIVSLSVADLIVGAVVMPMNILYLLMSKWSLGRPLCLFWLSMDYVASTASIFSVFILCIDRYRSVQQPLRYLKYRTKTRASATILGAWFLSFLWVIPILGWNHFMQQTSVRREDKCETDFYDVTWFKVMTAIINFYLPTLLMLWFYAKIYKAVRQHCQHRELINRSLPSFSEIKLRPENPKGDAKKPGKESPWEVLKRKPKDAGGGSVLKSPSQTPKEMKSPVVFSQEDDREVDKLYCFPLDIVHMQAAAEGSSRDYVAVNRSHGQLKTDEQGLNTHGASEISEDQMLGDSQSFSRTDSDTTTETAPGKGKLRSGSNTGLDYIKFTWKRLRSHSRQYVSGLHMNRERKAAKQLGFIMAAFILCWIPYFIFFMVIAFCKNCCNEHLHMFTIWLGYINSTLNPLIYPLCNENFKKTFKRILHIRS

Usually inhibition stands for the drop in the measured response relative to a control, in per cent. As for `Cc1ccc2c(c1)c1c(n2-c2ccccc2)CCN(C)C1` [Compound 1, 2,8-dimethyl-5-phenyl-2,3,4,5-tetrahydro-1H-pyrido[4,3-b]indole], the results for the inhibition at 1 µM in test [1] and in test [2] were 70% and 67%, respectively. Moreover, the inhibition at 0.1 µM in test [3] worked out at 100%; in test [4], 88%; in test [5] it was 63%; in test [6] it was 21%.
In the case of `Cc1ccc2c(c1)c1c(n2-c2ccncc2)CCN(C)C1` [Compound 2, 2,8-dimethyl-5-pyridin-4-yl-2,3,4,5-tetrahydro-1H-pyrido[4,3-b]indole], the inhibition at 1 µM was determined as 51% in test [1] and 13% in test [2]. For the same molecule, the inhibition at 0.1 µM in test [3] stood at 74%; in test [4], 54%; in test [5] it was 17%; in test [6], 36%.
Turning to `Cc1ccc2c(c1)c1c(n2-c2ccc(C)nc2)CCN(C)C1` [Compound 3, 2,8-dimethyl-5-(6-methyl-pyridin-3-yl)-2,3,4,5-tetrahydro-1H-pyrido[4,3-b]indole], the figures for the inhibition at 1 µM in test [1] and in test [2] were 10% and 16%, respectively. Besides, the inhibition at 0.1 µM in test [3] amounted to 36%; in test [4] it was 26%; in test [5] it was 20%; in test [6], 8%.
Take `Cc1ccc2c(c1)c1c(n2-c2ccc(C(F)(F)F)nc2)CCN(C)C1` [Compound 4, 2,8-dimethyl-5-(6-trifluoromethyl-pyridin-3-yl)-2,3,4,5-tetrahydro-1H-pyrido[4,3-b]indole]: the inhibition at 1 µM in test [1] was -1%; in test [2], 0%. For the same molecule, the inhibition at 0.1 µM turned out to be 67% in test [3], 73% in test [4], 14% in test [5] and 1% in test [6].
Regarding `Cc1ccc2c(c1)c1c(n2-c2ccccc2N(C)C)CCN(C)C1` [Compound 6, [2-(2,8-dimethyl-1,2,3,4-tetrahydro-pyrido[4,3-b]indol-5-yl)-phenyl]-dimethyl-amine], the inhibition at 1 µM in test [1] was determined as 99%; in test [2], 58%. The inhibition at 0.1 µM in test [3] came to 91%; in test [4], 90%; in test [5], 28%; in test [6], 49%.
In the case of `Cc1ccc2c(c1)c1c(n2-c2cccc(N(C)C)c2)CCN(C)C1` [Compound 7, [3-(2,8-dimethyl-1,2,3,4-tetrahydro-pyrido[4,3-b]indol-5-yl)-phenyl]-dimethyl-amine], the inhibition at 1 µM in test [1] is 43%; in test [2], 31%. The inhibition at 0.1 µM in test [3] is 52%; in test [4], 42%; in test [5] it was 4%; in test [6], 19%.
As to `Cc1ccc2c(c1)c1c(n2-c2ccccc2-c2ccccc2)CCN(C)C1` [Compound 8, 5-biphenyl-2-yl-2,8-dimethyl-2,3,4,5-tetrahydro-1H-pyrido[4,3-b]indole], the inhibition at 1 µM in test [1] was found to be 92%; in test [2], 30%. Further, the inhibition at 0.1 µM in test [3] is 99%; in test [4], 97%; in test [5], 52%; in test [6], 65%.
Turning to `Cc1ccc2c(c1)c1c(n2-c2cccc3cnccc23)CCN(C)C1` [Compound 9, 5-isoquinolin-5-yl-2,8-dimethyl-2,3,4,5-tetrahydro-1H-pyrido[4,3-b]indole], the inhibition at 1 µM in test [1] was 65%; in test [2], 0%. Moreover, the inhibition at 0.1 µM worked out at 54% in test [3], 77% in test [4], 5% in test [5] and 59% in test [6].
For `Cc1ccc2c(c1)c1c(n2-c2ccc3ccccc3c2)CCN(C)C1` [Compound 12, 2,8-dimethyl-5-naphthalen-2-yl-2,3,4,5-tetrahydro-1H-pyrido[4,3-b]indole], the results for the inhibition at 1 µM in test [1] and in test [2] were 24% and 84%, respectively. In addition, the inhibition at 0.1 µM in test [3] amounted to 94%; in test [4], 93%; in test [5], 63%; in test [6], 3%.
For the molecule `Cc1ccc2c(c1)c1c(n2-c2ccccc2-c2cccnc2)CCN(C)C1` [Compound 13, 2,8-dimethyl-5-(2-pyridin-3-yl-phenyl)-2,3,4,5-tetrahydro-1H-pyrido[4,3-b]indole], the figures for the inhibition at 1 µM in test [1] and in test [2] were 72% and 21%, respectively. Moreover, the inhibition at 0.1 µM was 73% in test [3], 73% in test [4], 14% in test [5] and 47% in test [6].
On to `COc1ccc(-n2c3c(c4cc(C)ccc42)CN(C)CC3)cn1` [Compound 17, 5-(6-Methoxy-pyridin-3-yl)-2,8-dimethyl-2,3,4,5-tetrahydro-1H-pyrido[4,3-b]indole], for which the figures for the inhibition at 1 µM in test [1] and in test [2] were 23% and 10%, respectively. Besides, the inhibition at 0.1 µM in test [3] came to 62%; in test [4] it was 44%; in test [5], 17%; in test [6], 1%.
On to `Cc1ccc2c(c1)c1c(n2-c2cncn2C)CCN(C)C1` [Compound 18, 2,8-dimethyl-5-(3-methyl-3H-imidazol-4-yl)-2,3,4,5-tetrahydro-1H-pyrido[4,3-b]indole], for which the inhibition at 1 µM in test [1] was 79%; in test [2] it was 13%. In addition, the inhibition at 0.1 µM was 14% in test [3], 8% in test [4], 2% in test [5] and 22% in test [6].
With `Cc1ccc2c(c1)c1c(n2-c2ccccc2-c2cnccc2C)CCN(C)C1` [Compound No. 159, 2,8-dimethyl-5-(2-(4-methylpyridin-3-yl)phenyl)-2,3,4,5-tetrahydro-1H-pyrido[4,3-b]indole], the inhibition at 0.1 µM in test [3] was 48%; in test [5], 0%; in test [6], 19%.
Take `Cc1ccc2c(c1)c1c(n2-c2ccccc2-c2ccc(S(C)(=O)=O)cc2)CCN(C)C1` [Compound No. 160, 2,8-dimethyl-5-(4′-(methylsulfonyl)biphenyl-2-yl)-2,3,4,5-tetrahydro-1H-pyrido[4,3-b]indole]: the inhibition at 0.1 µM is 36% in test [3], 18% in test [5] and 17% in test [6].
Take `Cc1ccc2c(c1)c1c(n2-c2ncccc2-c2ccncc2)CCN(C)C1` [Compound No. 161, 5-(3,4′-bipyridin-2-yl)-2,8-dimethyl-2,3,4,5-tetrahydro-1H-pyrido[4,3-b]indole]: the inhibition at 0.1 µM was 17% in test [3], 4% in test [5] and 18% in test [6].
With `Cc1ccc2c(c1)c1c(n2-c2ccccc2-c2ccc(S(N)(=O)=O)cc2)CCN(C)C1` [Compound No. 163, 2′-(2,8-dimethyl-3,4-dihydro-1H-pyrido[4,3-b]indol-5(2H)-yl)biphenyl-4-sulfonamide], the inhibition at 0.1 µM was found to be 73% in test [3], 13% in test [5] and 36% in test [6].
Consider `Cc1ccc2c(c1)c1c(n2-c2cnc(C)c3ccccc23)CCN(C)C1` [Compound No. 164, 2,8-dimethyl-5-(1-methylisoquinolin-4-yl)-2,3,4,5-tetrahydro-1H-pyrido[4,3-b]indole], for which the inhibition at 0.1 µM in test [3] turned out to be 23%; in test [5] it was 1%; in test [6] it was 4%.
